Here are results for 3 molecules from patent publication US20100004289A1, “SUBSTITUTED BUTYROPHENONE DERIVATIVES” (priority 2005, published 2010).

Several values for one entry are separate records, joined by “and”; a condition that tells them apart may be missing. Equal entries are not always repeated.

Series [1] has as its target rat brain or human brain dopamine D2 receptor. The settings on record: read-out: affinity (dissociation constant) of dopamine at the high-affinity state of D2; cited from earlier work.
In series [2] the target is T1, cloned dopamine human D2Long receptor (Homo sapiens, UniProt P14416).
T1 construct: purchased Research Biochemicals International (Natick, Mass.); host or cells: Sf9 cells or CHO cells
T1 sequence (P14416 whole entry): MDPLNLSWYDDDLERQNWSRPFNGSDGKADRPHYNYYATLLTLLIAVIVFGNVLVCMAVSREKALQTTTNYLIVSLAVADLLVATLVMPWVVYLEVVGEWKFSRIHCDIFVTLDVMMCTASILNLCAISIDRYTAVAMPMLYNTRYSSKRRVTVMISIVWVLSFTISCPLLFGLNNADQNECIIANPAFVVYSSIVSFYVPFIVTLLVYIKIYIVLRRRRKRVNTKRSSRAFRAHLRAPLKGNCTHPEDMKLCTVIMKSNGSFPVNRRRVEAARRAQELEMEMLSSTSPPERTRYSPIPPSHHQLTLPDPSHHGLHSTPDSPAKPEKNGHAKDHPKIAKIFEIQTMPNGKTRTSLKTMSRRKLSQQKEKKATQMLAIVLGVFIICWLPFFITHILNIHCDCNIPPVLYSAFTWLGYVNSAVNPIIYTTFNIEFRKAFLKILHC
The experiment in a line: Competitive binding at cloned dopamine D2 receptor ([3H]raclopride). To be noted: 2 nM [3H]raclopride, read-out: dissociation constant, K, at D2 receptor. The protocol: (§1) Human dopamine D1 receptors (in Sf9 cells or COS cells), human dopamine D2Long receptors (in Sf9 cells or CHO cells), human alpha-adrenoceptor-2A receptors, and human muscarinic M1 receptors, all expressed in Sf9 cells, were purchased from Research Biochemicals International (Natick, Mass.). The frozen membranes containing the receptors were directly suspended at approximately 100 μg protein/ml and the cell suspension was homogenized for 5 s (Polytron, setting 5) without any further washing.

For series [3], the target named is T2, serotonin-1A receptor (rat frontal cortex tissue) (Rattus norvegicus, UniProt P19327).
T2 construct: tissue Pel-Freez (Rogers, Ark.); host or cells: rat frontal cerebral cortex
T2 sequence (P19327 1-422): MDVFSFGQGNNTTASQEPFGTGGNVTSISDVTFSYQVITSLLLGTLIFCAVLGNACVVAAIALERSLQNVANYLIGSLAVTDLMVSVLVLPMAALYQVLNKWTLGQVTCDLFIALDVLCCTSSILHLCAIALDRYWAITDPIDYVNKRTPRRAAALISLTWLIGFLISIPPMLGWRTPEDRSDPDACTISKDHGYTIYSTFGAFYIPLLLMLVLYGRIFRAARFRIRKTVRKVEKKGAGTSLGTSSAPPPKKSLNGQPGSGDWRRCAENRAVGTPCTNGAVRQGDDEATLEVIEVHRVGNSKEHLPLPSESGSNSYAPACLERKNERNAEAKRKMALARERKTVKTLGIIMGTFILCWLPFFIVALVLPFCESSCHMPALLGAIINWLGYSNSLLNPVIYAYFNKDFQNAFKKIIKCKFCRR
The experiment in a line: Competitive binding at serotonin-1A receptor ([3H]8-OH-DPAT), rat tissue. To be noted: read-out: dissociation constant at serotonin-1A receptor.
Experimental: (§2) Rat brains were purchased from Pel-Freez (Rogers, Ark.) and stored at −70° C. […] Before each experiment, the striatum or the frontal cerebral cortex (free of myelin) was dissected from the partly thawed rat brain on a glass plate on a bed of dry ice. The dissected tissue was suspended in buffer (50 mM Tris-HCl, pH 7.4 at 20° C., 1 mM EDTA, 5 mM KCl, 120 mM NaCl, 1.5 mM CaCl2, 4 mM MgCl2) at 4 mg original wet weight per ml suspension.
(§3) The competition between a compound and a [^3H]ligand for binding at the various receptors was done as follows. Each incubation tube (12×75 mm glass) received, in the following order, 0.5 ml buffer (50 mM Tris-HCl, pH 7.4 at 20° C., 1 mM EDTA, 5 mM KCl, 120 mM NaCl, 1.5 mM CaCl2, 4 mM MgCl2) containing a range of drug concentrations (final concentrations of 0.01 nM to 1,000 nM) or an excess of a second drug in order to define nonspecific binding, followed by the addition of 0.25 ml [^3H]ligand, and 0.25 ml of homogenized tissue suspension. […] After filtering the incubate, the filter mat was rinsed with buffer for 15 s (7.5 ml buffer). The filters were pushed out and placed in scintillation minivials (Packard Instruments, Chicago, Ill.).
(§4) Competition at the muscarinic receptors was done using either the cloned M1 receptors or the rat frontal cortex, 0.6 nM [^3H]QNB, and using 200 nM atropine to define nonspecific binding. […]

For series [4], the target named is T3, alpha-2-adrenoceptor (cloned in Sf9 cells) (Homo sapiens, UniProt P08913).
T3 construct: purchased Research Biochemicals International (Natick, Mass.); host or cells: Sf9 cells
T3 sequence (P08913 1-465): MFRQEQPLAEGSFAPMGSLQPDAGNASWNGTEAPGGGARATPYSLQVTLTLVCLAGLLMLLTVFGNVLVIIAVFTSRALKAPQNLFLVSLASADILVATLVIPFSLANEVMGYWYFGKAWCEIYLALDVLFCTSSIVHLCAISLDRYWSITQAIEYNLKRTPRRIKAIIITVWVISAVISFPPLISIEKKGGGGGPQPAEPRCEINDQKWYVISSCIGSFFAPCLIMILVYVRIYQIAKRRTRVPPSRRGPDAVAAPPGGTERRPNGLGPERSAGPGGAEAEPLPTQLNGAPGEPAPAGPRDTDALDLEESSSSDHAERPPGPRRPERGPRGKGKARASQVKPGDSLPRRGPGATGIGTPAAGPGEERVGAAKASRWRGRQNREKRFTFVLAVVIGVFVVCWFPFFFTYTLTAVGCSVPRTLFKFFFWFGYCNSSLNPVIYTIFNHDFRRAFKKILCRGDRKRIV
The experiment in a line: Competitive binding at alpha-2-adrenoceptor ([3H]yohimbine). To be noted: read-out: dissociation constant at alpha-2-adrenoceptor. As to the method: as §1

The subject of the next series is catalepsy. The experiment in a line: Catalepsy (horizontal bar). Format: in vivo. To be noted: up to 60 mg/kg in mice. From the text:
The front paws of the animal were placed on a horizontal bar. Control animals quickly moved off the bar. Cataleptic animals held on to the bar for up to 15 seconds or more.

Series [5] has as its target muscarinic cholinergic receptor (rat cortex tissue). Nature of the series: Competitive binding at muscarinic receptor ([3H]QNB). To be noted: read-out: dissociation constant at muscarinic cholinergic receptor.
Experimental: as §2, §3, §4
Series [6] has as its target alpha-1-adrenoceptor (rat cortex). Nature of the series: Competitive binding at alpha-1-adrenoceptor ([3H]prazosin). The settings on record: read-out: dissociation constant at alpha-1-adrenoceptor.
Experimental: as §2, §3, §4
The target of series [7] is sigma receptor (rat striatal tissue) (Rattus norvegicus, UniProt Q9R0C9). The experiment in a line: biochemical.
sigma receptor (rat striatal tissue), sequence (Q9R0C9 whole entry): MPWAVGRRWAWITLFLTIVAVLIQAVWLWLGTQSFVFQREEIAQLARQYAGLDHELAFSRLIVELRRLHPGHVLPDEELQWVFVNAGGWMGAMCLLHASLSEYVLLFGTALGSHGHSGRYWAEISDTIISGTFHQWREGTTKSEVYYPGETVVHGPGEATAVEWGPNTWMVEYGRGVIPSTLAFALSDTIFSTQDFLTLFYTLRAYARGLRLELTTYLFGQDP
Experimental: as §2, §3, §4
Series [8] concerns the target T4, dopamine D1 receptor (rat striatal tissue) (Rattus norvegicus, UniProt P18901).
T4 construct: tissue Pel-Freez (Rogers, Ark.); host or cells: rat brain striatum
The experiment in a line: Competitive binding at dopamine D1 receptor ([3H]SCH23390), rat tissue. The settings on record: read-out: dissociation constant at dopamine D1 receptor.
Experimental: as §2, §3, §4

Series [9] deals with T5, histamine H1 receptor (rat cortex) (Rattus norvegicus, UniProt P31390).
T5 construct: tissue Pel-Freez (Rogers, Ark.); host or cells: rat cortex
T5 sequence (P31390 whole entry): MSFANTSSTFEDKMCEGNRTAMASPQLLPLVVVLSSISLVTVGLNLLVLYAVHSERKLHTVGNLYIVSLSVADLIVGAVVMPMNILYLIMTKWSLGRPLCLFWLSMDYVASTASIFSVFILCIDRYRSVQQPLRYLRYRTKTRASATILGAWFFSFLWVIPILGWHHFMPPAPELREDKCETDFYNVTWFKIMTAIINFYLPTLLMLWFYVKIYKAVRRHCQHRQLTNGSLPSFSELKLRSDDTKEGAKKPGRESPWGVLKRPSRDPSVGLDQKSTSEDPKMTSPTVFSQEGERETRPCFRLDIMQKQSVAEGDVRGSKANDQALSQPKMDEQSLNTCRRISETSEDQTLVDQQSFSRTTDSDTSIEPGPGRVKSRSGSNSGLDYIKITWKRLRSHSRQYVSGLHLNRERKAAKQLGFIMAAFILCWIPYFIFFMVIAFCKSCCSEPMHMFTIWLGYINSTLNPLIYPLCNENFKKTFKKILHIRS
Nature of the series: Competitive binding at histamine H1 receptor. To be noted: read-out: dissociation constant at histamine H1 receptor.
Experimental: as §3

Another series concerns the target T6, dopamine D2 receptors (Rattus norvegicus, UniProt P61169).
T6 construct: from tissue; host or cells: striatum of living Sprague-Dawley rats
The experiment in a line: In vivo D2 occupancy ([3H]raclopride, striatum). The settings on record: for receptor occupancy at 20 mg/kg: po, oral 20 mg/kg, rats. As to the method: Sprague-Dawley rats (each 250 g) received an oral dose of test compound of 20 mg/kg by gavage, using 2 ml per gavage feeding. The test compound solution was prepared as follows: 20 mg of test compound was added to 8 ml saline (0.9% NaCl), followed by the addition of a few drops of 2% lactic acid and back titration of the suspension to pH 5 using 0.1 N NaOH. A fine particulate suspension was used for gavage. Each rat received 2 ml of the suspension over a period of 5 minutes. […] The D2 occupancy in the striatum was calculated.

For series [10], the target named is T7, cloned dopamine D2 receptor (Homo sapiens, UniProt P14416).
T7 construct: purchased Research Biochemicals International (Natick, Mass.); host or cells: Sf9 cells or CHO cells
T7 sequence (P14416 whole entry): as the sequence (P14416 whole entry) above
The experiment in a line: Dissociation from the cloned dopamine D2 receptor. Format: binding.

In the next series the target is T8, HERG channel receptor (Rattus norvegicus, UniProt O08962).
T8 sequence (O08962 1-1163): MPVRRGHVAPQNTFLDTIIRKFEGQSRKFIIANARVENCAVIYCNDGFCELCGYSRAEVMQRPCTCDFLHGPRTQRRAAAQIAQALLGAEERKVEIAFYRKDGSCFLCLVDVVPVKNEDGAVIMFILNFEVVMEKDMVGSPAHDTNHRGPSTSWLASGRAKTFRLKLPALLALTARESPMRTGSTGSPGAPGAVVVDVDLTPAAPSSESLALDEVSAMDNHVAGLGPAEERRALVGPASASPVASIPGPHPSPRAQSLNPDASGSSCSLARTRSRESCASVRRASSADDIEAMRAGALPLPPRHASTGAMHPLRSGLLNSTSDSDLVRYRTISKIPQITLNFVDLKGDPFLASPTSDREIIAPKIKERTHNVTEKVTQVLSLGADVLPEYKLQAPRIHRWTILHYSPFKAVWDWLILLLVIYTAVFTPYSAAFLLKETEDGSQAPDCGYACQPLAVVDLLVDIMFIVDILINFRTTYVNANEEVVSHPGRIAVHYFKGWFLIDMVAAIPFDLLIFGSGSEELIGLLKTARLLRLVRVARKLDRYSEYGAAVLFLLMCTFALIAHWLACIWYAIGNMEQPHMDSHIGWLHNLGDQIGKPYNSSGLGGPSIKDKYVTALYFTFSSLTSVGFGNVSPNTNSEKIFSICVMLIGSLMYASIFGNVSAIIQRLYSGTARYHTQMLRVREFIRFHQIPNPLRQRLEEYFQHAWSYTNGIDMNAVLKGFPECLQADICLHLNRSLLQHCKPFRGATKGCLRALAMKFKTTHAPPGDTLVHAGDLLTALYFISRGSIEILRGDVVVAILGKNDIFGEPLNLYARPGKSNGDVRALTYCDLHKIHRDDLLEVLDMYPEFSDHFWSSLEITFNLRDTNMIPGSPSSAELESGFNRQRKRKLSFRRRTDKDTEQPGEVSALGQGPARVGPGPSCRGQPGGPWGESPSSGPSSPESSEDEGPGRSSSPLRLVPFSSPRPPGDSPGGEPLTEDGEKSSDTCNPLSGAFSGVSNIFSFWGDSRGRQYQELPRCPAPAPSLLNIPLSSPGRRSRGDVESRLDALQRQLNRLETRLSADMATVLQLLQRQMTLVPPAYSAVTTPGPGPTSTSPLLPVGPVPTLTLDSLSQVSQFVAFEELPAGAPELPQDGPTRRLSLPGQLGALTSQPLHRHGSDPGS
The experiment in a line: Competitive binding at HERG channel ([3H]dofetilide).

T6 sequence (P61169 whole entry): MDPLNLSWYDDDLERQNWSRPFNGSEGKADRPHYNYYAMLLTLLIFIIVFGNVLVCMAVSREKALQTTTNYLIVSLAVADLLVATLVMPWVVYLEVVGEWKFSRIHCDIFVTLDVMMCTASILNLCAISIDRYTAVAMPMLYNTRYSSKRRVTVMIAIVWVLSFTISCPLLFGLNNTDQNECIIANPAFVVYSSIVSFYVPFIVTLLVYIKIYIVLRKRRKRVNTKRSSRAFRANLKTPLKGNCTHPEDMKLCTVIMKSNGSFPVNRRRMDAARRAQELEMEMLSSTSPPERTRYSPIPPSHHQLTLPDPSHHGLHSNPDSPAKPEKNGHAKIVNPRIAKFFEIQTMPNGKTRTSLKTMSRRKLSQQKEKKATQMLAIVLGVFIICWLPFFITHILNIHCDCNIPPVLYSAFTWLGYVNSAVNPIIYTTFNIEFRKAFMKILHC
T4 sequence (P18901 whole entry): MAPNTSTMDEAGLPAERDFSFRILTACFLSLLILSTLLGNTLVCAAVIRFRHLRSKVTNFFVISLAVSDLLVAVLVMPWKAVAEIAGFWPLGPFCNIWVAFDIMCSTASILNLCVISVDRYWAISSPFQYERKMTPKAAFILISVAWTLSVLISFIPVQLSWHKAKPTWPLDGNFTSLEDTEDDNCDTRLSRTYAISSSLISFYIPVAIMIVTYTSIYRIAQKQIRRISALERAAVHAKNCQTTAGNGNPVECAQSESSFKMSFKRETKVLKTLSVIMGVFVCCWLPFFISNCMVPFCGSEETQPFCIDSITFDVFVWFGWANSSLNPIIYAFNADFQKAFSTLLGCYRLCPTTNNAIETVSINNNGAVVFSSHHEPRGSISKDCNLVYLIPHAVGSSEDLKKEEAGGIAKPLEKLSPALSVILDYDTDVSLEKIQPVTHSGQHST
Experimental for HERG channel receptor: as §3

Consider `NCCc1ccc(O)c(O)c1` [dopamine], for which, in [1], the Kd was ~1.75 nM and 1.75 nM.
As for `COc1cccc(C(=O)CCCN2CCC(O)(c3ccccc3)CC2)c1` [Example 2(b), 4-[4-phenyl-4-hydroxypiperidin-1-yl]-1-(3-methoxyphenyl)butan-1-one, reference compound], in series [2], the Ki came out at 660 nM.
The molecule `COc1cccc(C(=O)CCCN2CCC(O)(c3ccc(Cl)cc3)CC2)c1` [Example 2(a), 4-[4-(4-chlorophenyl)-4-hydroxypiperidin-1-yl]-1-(3-methoxyphenyl)butan-1-one] came in with a melting point of 127 to 129 °C. The Ki in series [3] turned out to be 12000 nM. Besides, the Ki in series [4] is 9500 nM. In addition, the Ki in series [2] came out at 140 ± 8 nM. For the same molecule, the catalepsy entry in the series with catalepsy is on record as “did not result in any catalepsy”. The Ki in series [5] was 570 nM. Further, in series [6], the Ki amounted to 1070 nM. The Ki in series [7] worked out at 200 nM. In addition, the Ki in series [8] was determined as 11000 nM. In addition, the Ki in [9] is 1140 nM. On dopamine D2 receptors (30 min), this molecule registered a receptor occupancy at 20 mg/kg of 39%. Further, on dopamine D2 receptors (1 hour), the receptor occupancy at 20 mg/kg was found to be 63%. The molecule further returned a receptor occupancy at 20 mg/kg on dopamine D2 receptors (2 hour) of 24%. The molecule further showed a receptor occupancy at 20 mg/kg at dopamine D2 receptors (3 hour) of 28%. The molecule also had a receptor occupancy at 10 mg/kg on dopamine D2 receptors (sc, 10 mg/kg subcutaneous, after one hour, Sprague Dawley rats) of 61%. In addition, in series [10], the “time at which dissociation from cloned D2 receptor was 50% completed” value was 23 s. Also, on HERG channel receptor, the Ki was 2600 nM.

As usually defined, the melting point is the temperature, or range, at which the solid turns liquid.
